From patent US9681647B2, “Mammal with an orthotopic tumor capable of metastasis, a method of making and a method of using” (Cornell University, priority 2012, dated 2017)
Marks after values point to notes of the source that are not given here.

Legend:
[1] = test system: metastatic tumors made according to the present disclosure; assay: Oxaliplatin treatment of metastatic tumors versus primary GI tumors and subcutaneous xenografts; format: in vivo
[2] = test system: early stage CCIC colon/intestine and ex-GI xenograft tumors (CCR9/CCL25 axis); assay: CCIC xenograft tumor formation after tail vein injection, CCR9/CCL25 blocked before or with cell injection (Table 2); format: in vivo, NOD/SCID mice
Text: CCR9 constitutive and inducible knockdown; Snail or CD26 knockdown in CCIC and NOTCH reporter CCIC. The lentiviral vector pEco-CMV-H1-shRNA-GFP encoding a shRNA hairpin sequence (CCR9: 5′-CTTGTACTGGC[…] ID NO:14; Snail: 5′-GAGCTGCAGG[…] ID NO:15; CD26: 5′-CATTCCTACAC[…] ID NO:16) was used for CCR9, Snail or CD26 expression knockdown and the lentiviral vectors pEco-CMV-H1-GFP (GenTarget Inc, San Diego, Calif.) and pEco-CMV-H1-scrambled-shRNA-GFP served as controls. To generate the lentiviral vectors, the above plasmids were transfected into HEK293T cells with the Genetargetlentivirus packaging mix (GenTarget Inc, San Diego, Calif.) according to the manufacturer's protocol. For CCR9 tetracycline inducible knockdown, the same shRNA hairpin sequence against CCR9 gene was inserted into pLenti-H1-shRNA-RSV (GFP-Puro) vector (GenTarget Inc, San Diego, Calif.) and packaged into lentivirus particles, which were used together with another TetR expression lentivirus (RFP-Bsd)(GenTarget Inc, San Diego, Calif.) to infect CCICs. After antibiotic selection and GFP/RFP dual FACS purification, the CCR9 shRNA knockdown can be induced by 1 ug/ml (in vitro) or 1 mg/ml (in vivo) doxycycline. NOTCH signaling reporter CCIC was generated by infecting CCIC with pCignalLenti RBP-Jk Reporter (GFP) ready lentivirus (SABiosciences, Inc.). After infecting CCIC lines with these lentiviral vectors, stable knockdown clones were obtained through antibiotic selection of blasticidin (Invitrogen, Carlsbad, Calif.). The efficiency of the CCR9, SNAIL or CD26 knockdown in CCIC was verified by Western Blotting and efficiency of NOTCH signaling reporter was tested by 2 μg/ml Jagged-1 (AnaSpec) treatment following by GFP-FACS sorting.
CCIC xenograft tumor formation in colon/intestine and other organs. 0.5-1×10^6CCIC or common CRC cells were injected into 6-8 weeks old non-obese diabetic/severe combined immunodeficient (NOD/SCID) mice (Jackson Laboratory, Bar Harbor, Me.) by tail vein injection. Tumor incidence was monitored 2-3× weekly. When mice became moribund, they were sacrificed immediately, necropsy performed and tumors harvested using a dissecting microscope. For ex vivo GFP imaging of tumor tissues, lentiviral infection by the pEco-CMV-GFP vector was used to generate CCIC lines that stably express GFP and maintained in puromycin selection. 10^6 of these fluorescent CCIC were systemically injected as described above. Intestinal tissues harvested at the time of sacrifice were analyzed for GFP expression with Cri Maestro Imaging Systems (Cambridge Research & Instrumentation Inc, Woburn, Mass.).
For the CCR9 study, native CCICs, CCICs with CCR9, Snail (SNAL1) or CD26 knockdown (or commonly used CRC cell lines such as HCT116, etc. as indicated), CCR9+ CCIC with CCR9 inducible knockdown were intravenously inoculated into the 6-8 weeks old NOD/SCID mice by tail vein. Mice that became moribund were sacrificed immediately, whereas the rest were closely monitored for 16 weeks before sacrifice. To test whether CCL25 antibody could inhibit the CCL25-CCR9 GI homing mechanism in vivo, a dose of 100 ug goat anti-mouse CCL25 neutralization antibody (R&D systems, Cat #AF-481-NA), was IP administrated to each mouse twice (the same dose and schedule as used in). As a negative control, a dose of 100 ug Goat IgG (R&D systems) was administered to each mouse in the control group. Then 1×10^6CCIC were injected into the mice 8 hours after or with the injection of the antibody. To test whether extra-GI metastasis is induced by CCR9/CCL25 signaling blockade, CCL25 neutralization antibody with the same dose was IP administrated to each mouse every three days or 1 mg/ml doxycycline in drinking water was given to mice every other days starting from the fourth week after CCIC inoculation until mice get moribund.

[3] = mice tail vein injected with early stage CCIC, blockade before/concurrent with injection or constitutive shRNA KD

| Compound | chemoresistance of metastatic tumors relative to primary GI tumors and subcutaneous xenografts [1] | overall survival of mice vs. control ([2]; mice systemically injected with CCIC, Kaplan-Meier, FIG. 6C) | Ex-GI Tumor Incidence (%) [2, 3] [%] | GI Tumor Incidence (%) [2, 3] | Mean Ex-GI Tumors/Mouse [2, 3] | Mean GI Tumors/mouse [2, 3] | Mean Progression (weeks) ([2]; mice tail vein injected with early stage CCIC, time until moribund, blockade before/concurrent with injection or constitutive shRNA KD) |
| --- | --- | --- | --- | --- | --- | --- | --- |
| O=C1[O][Pt]2([NH][C@@H]3CCCC[C@H]3[NH]2)[O]C1=O [oxaiplatin] | more chemoresistant |  |  |  |  |  |  |
| CCR9 KD: constitutive lentiviral shRNA against CCR9 (hairpin 5'-CTTGTACTGGCTCGTGTTCAT, SEQ ID NO:14) expressed in CCIC |  | significantly longer | 85.7 | 14.3* % | 105.0* | 0.3* | 13.0* weeks |
